{"source": "paper PMC5078040", "about": "(Oncotarget, 2016)", "key": {"DMPK2": {"molecular_target": "T1, DMPK2 (Homo sapiens, UniProt Q6DT37)", "T1 construct": "purchased DiscoveRx KINOMEscan", "T1 sequence (Q6DT37 whole entry)": "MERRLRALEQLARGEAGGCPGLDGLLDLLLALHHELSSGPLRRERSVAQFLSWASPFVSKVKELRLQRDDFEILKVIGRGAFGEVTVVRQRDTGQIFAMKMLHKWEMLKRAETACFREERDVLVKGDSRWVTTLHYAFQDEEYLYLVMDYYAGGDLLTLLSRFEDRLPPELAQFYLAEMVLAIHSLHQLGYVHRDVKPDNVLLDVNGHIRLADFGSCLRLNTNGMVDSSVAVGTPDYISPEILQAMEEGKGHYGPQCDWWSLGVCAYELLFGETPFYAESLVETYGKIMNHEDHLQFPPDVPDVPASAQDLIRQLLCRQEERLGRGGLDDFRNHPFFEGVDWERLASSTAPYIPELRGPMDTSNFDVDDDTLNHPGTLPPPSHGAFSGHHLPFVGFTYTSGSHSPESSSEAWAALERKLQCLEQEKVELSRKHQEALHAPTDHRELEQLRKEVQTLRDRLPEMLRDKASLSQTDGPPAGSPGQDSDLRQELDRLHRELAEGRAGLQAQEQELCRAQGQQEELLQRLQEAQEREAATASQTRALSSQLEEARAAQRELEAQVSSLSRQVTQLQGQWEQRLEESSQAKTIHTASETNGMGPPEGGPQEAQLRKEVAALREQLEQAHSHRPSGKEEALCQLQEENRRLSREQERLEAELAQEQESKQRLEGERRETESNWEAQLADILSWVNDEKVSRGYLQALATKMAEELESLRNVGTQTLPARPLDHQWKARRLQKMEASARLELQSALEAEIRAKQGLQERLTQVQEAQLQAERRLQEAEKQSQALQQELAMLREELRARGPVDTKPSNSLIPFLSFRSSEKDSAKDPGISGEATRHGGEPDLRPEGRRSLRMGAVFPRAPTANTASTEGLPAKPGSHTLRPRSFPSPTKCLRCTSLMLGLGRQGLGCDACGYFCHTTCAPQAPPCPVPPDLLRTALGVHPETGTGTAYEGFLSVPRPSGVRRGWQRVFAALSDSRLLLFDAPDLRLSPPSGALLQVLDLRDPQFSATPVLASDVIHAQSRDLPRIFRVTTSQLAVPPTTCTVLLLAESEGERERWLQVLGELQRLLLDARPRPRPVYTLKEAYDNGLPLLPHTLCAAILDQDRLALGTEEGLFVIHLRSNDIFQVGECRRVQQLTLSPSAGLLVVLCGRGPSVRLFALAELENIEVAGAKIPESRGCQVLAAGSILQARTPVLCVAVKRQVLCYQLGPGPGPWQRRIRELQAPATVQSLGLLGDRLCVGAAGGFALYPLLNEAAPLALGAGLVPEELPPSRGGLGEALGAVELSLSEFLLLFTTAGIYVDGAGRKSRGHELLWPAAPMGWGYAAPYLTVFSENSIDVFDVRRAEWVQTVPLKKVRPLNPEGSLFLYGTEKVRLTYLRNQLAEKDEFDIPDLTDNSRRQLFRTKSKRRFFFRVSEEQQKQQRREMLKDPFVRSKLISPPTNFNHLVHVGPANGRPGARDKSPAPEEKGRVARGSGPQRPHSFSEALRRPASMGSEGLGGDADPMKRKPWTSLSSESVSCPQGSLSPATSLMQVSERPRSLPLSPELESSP", "assay": "KinomeScan", "assay_type": "binding", "conditions": "1uM"}, "IKK-beta": {"molecular_target": "T2, IKK-beta (Homo sapiens, UniProt O14920)", "T2 construct": "purchased DiscoveRx KINOMEscan", "assay": "KinomeScan", "assay_type": "binding", "conditions": "1uM"}, "[1]": {"molecular_target": "T3, RSK1(Kin.Dom.1-N-terminal) (Homo sapiens, UniProt Q15418)", "T3 construct": "RSK1(Kin.Dom.1-N-terminal); purchased DiscoveRx KINOMEscan", "assay": "KinomeScan", "assay_type": "binding", "conditions": "1uM"}, "PI3Kβ": {"molecular_target": "T4, PI3Kβ (Mus musculus, UniProt Q8BTI9)", "T4 construct": "endogenous in cells; host or cells: NIH-3T3", "assay": "PI3Ks isoform in cell EC50 assay (AKT phosphorylation, Western Blotting)", "assay_type": "cell-based", "conditions": "NIH-3T3, 5μM LPA, read-out: cellular EC50 PI3K Beta"}, "S6K phosphorylation": {"test_system": "S6K phosphorylation", "assay": "Signaling pathway effect examination (western blotting)", "assay_type": "cell-based, human", "design": "dose or concentration left out as unconfirmed", "conditions": "MOLM13, HT, Namalwa, MEC-1, MEC-2 cells", "procedure": "The cells were collected and lysed, and cell lysates were analyzed by western blotting."}, "ROCK1": {"molecular_target": "T5, ROCK1 (Homo sapiens, UniProt Q13464)", "T5 construct": "purchased DiscoveRx KINOMEscan", "assay": "KinomeScan", "assay_type": "binding", "conditions": "1uM"}, "JNK2": {"molecular_target": "T6, JNK2 (Homo sapiens, UniProt P45984)", "T6 construct": "purchased DiscoveRx KINOMEscan", "T6 sequence (P45984 whole entry)": "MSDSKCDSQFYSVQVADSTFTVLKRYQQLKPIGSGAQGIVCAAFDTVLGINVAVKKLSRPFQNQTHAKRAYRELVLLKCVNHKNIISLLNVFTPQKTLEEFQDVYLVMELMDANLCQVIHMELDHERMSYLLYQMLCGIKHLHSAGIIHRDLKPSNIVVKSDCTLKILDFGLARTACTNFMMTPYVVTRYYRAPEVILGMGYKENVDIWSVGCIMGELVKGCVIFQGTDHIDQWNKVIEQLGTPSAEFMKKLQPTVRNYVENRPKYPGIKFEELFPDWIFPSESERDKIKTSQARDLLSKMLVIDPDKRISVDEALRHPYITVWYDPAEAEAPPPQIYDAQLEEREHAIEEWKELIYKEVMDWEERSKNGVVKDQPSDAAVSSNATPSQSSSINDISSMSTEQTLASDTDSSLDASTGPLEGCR", "assay": "KinomeScan", "assay_type": "binding", "conditions": "1uM"}, "ACVR1B": {"molecular_target": "T7, ACVR1B (Homo sapiens, UniProt P36896)", "T7 construct": "purchased DiscoveRx KINOMEscan", "assay": "KinomeScan", "assay_type": "binding", "conditions": "1uM"}, "PI3Kα": {"molecular_target": "PI3Kα (Homo sapiens, UniProt P42336)", "assay": "biochemical", "description": "(§1) The reaction in each tube was started immediately by adding ATP and kept going for an hour under 37°C. After the tube cooled for 5 minutes at room temperature, 5 μL solvent reactions were carried out in a 384-well plate. Then 5 μL of ADP-Glo™ reagent was added into each well to stop the reaction and consume the remaining ADP within 40 minutes. At the end, 10 μL of kinase detection reagent was added into the well and incubated for 30 minutes to produce a luminescence signal. Luminescence signal was measured with an automated plate reader (Perkin-Elmer Envision) and each measurement was performed in triplicate."}, "CLL patient primary cell": {"test_system": "CLL patient primary cell", "assay": "Anti-proliferative efficacy against patient primary cells", "assay_type": "cell-based", "conditions": "Homo sapiens", "procedure": "Peripheral blood mononuclear cells (PBMCs) from individuals with CLL were isolated by density centrifugation through Ficoll and frozen for each subject. Those subjects with low white counts whose CLL cell purity was expected to be < 85% underwent B cell isolation using RosetteSep. The protocol was approved by the Dana-Farber Harvard Cancer Center Institutional Review Board and all subjects signed written informed consent prior to participation.\nCells were grown in 96-well culture plates (3000-4000/well). […] Cell proliferation was determined after treatment with compounds for 72 hours. Cell viability was measured using the CellTiter–Glo Assay Kit (Promega, USA), according to the manufacturer's instructions, and luminescence was measured in a multi-label reader (Envision, PerkinElmer, USA). Data were normalized to control groups (DMSO) and represented by the mean of three independent measurements with standard error <20%. GI50 values were calculated using Prism 5.0 (GraphPad Software, San Diego, CA)."}, "ITK": {"molecular_target": "T8, ITK (Homo sapiens, UniProt Q08881)", "T8 construct": "purchased DiscoveRx KINOMEscan", "assay": "KinomeScan", "assay_type": "binding", "conditions": "1uM"}, "DDR2": {"molecular_target": "T9, DDR2 (Homo sapiens, UniProt Q16832)", "T9 construct": "purchased DiscoveRx KINOMEscan", "T9 sequence (Q16832 22-855)": "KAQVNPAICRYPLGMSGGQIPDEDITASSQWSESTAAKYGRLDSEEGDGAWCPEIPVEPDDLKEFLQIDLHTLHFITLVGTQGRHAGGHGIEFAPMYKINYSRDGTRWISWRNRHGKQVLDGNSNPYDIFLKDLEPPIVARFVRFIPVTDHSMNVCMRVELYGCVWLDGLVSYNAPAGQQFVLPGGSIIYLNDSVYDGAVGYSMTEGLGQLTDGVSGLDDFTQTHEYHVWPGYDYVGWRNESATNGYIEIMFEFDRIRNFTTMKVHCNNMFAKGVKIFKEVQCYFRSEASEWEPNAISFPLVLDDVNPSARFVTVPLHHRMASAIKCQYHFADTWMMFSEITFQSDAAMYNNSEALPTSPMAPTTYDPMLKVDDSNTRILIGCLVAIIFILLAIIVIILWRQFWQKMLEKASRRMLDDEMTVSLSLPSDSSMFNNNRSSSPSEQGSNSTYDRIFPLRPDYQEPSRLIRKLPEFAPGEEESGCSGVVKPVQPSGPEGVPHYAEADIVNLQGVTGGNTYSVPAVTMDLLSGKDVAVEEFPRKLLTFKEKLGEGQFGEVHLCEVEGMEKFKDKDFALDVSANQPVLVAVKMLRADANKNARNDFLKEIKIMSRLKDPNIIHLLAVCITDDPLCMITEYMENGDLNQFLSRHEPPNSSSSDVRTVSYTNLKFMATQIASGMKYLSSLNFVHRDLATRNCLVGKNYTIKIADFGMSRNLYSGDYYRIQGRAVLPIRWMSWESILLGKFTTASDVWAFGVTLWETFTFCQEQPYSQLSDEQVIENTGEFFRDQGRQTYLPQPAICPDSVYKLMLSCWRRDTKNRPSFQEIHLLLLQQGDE", "assay": "KinomeScan", "assay_type": "binding", "conditions": "1uM"}, "DAPK2": {"molecular_target": "T10, DAPK2 (Homo sapiens, UniProt Q9UIK4)", "T10 construct": "purchased DiscoveRx KINOMEscan", "assay": "KinomeScan", "assay_type": "binding", "conditions": "1uM"}, "CDKL2": {"molecular_target": "T11, CDKL2 (Homo sapiens, UniProt Q92772)", "T11 construct": "purchased DiscoveRx KINOMEscan", "assay": "KinomeScan", "assay_type": "binding", "conditions": "1uM"}, "GRK4": {"molecular_target": "T12, GRK4 (Homo sapiens, UniProt P32298)", "T12 construct": "purchased DiscoveRx KINOMEscan", "assay": "KinomeScan", "assay_type": "binding", "conditions": "1uM"}, "MST2": {"molecular_target": "T13, MST2 (Homo sapiens, UniProt Q13188)", "T13 construct": "purchased DiscoveRx KINOMEscan", "assay": "KinomeScan", "assay_type": "binding", "conditions": "1uM"}, "WEE2": {"molecular_target": "T14, WEE2 (Homo sapiens, UniProt P0C1S8)", "T14 construct": "purchased DiscoveRx KINOMEscan", "assay": "KinomeScan", "assay_type": "binding", "conditions": "1uM"}, "PRKG1": {"molecular_target": "T15, PRKG1 (Homo sapiens, UniProt Q13976)", "T15 construct": "purchased DiscoveRx KINOMEscan", "assay": "KinomeScan", "assay_type": "binding", "conditions": "1uM"}, "MAST1": {"molecular_target": "T16, MAST1 (Homo sapiens, UniProt Q9Y2H9)", "T16 construct": "purchased DiscoveRx KINOMEscan", "assay": "KinomeScan", "assay_type": "binding", "conditions": "1uM"}, "FGFR1": {"molecular_target": "T17, FGFR1 (Homo sapiens, UniProt P11362)", "T17 construct": "purchased DiscoveRx KINOMEscan", "assay": "KinomeScan", "assay_type": "binding", "conditions": "1uM"}, "MARK4": {"molecular_target": "T18, MARK4 (Homo sapiens, UniProt Q96L34)", "T18 construct": "purchased DiscoveRx KINOMEscan", "assay": "KinomeScan", "assay_type": "binding", "conditions": "1uM"}, "WNK3": {"molecular_target": "T19, WNK3 (Homo sapiens, UniProt Q9BYP7)", "T19 construct": "purchased DiscoveRx KINOMEscan", "assay": "KinomeScan", "assay_type": "binding", "conditions": "1uM"}, "LRRK2": {"molecular_target": "T20, LRRK2 (Homo sapiens, UniProt Q5S007)", "T20 construct": "purchased DiscoveRx KINOMEscan", "assay": "KinomeScan", "assay_type": "binding", "conditions": "1uM"}, "PCTK2": {"molecular_target": "T21, PCTK2 (Homo sapiens, UniProt Q00537)", "T21 construct": "purchased DiscoveRx KINOMEscan", "T21 sequence (Q00537 whole entry)": "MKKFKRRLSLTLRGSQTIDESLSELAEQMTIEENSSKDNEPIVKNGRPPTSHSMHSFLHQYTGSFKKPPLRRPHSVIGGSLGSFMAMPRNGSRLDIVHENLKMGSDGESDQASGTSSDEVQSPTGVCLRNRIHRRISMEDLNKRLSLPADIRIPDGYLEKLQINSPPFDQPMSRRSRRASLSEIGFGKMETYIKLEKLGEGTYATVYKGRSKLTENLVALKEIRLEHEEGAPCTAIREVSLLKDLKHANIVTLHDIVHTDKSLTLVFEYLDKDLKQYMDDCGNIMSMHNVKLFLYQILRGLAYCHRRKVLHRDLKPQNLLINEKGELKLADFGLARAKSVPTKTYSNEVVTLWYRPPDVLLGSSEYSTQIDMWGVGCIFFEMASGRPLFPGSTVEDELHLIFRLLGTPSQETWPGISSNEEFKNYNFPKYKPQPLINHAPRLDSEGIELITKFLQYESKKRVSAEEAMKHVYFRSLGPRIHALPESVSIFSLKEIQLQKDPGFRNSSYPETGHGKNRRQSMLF", "assay": "KinomeScan", "assay_type": "binding", "conditions": "1uM"}, "PRKX": {"molecular_target": "T22, PRKX (Homo sapiens, UniProt P51817)", "T22 construct": "purchased DiscoveRx KINOMEscan", "assay": "KinomeScan", "assay_type": "binding", "conditions": "1uM"}, "TGFBR1": {"molecular_target": "T23, TGFBR1 (Homo sapiens, UniProt P36897)", "T23 construct": "purchased DiscoveRx KINOMEscan", "T23 sequence (P36897 34-503)": "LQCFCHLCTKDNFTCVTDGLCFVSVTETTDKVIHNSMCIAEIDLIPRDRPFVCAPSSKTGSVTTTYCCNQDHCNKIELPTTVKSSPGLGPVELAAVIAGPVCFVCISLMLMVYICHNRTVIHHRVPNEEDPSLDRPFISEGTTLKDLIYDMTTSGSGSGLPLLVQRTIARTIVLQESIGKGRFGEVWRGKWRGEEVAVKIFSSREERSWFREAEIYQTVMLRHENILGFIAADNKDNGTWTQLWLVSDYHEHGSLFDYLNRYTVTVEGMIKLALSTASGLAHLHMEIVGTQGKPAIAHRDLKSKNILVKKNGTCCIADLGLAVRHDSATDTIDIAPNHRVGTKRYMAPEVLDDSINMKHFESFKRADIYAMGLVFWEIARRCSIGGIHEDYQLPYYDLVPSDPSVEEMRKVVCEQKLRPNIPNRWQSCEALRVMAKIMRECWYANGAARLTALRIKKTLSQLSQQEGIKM", "assay": "KinomeScan", "assay_type": "binding", "conditions": "1uM"}, "ULK2": {"molecular_target": "T24, ULK2 (Homo sapiens, UniProt Q8IYT8)", "T24 construct": "purchased DiscoveRx KINOMEscan", "assay": "KinomeScan", "assay_type": "binding", "conditions": "1uM"}, "BIKE": {"molecular_target": "T25, BIKE (Homo sapiens, UniProt Q9NSY1)", "T25 construct": "purchased DiscoveRx KINOMEscan", "assay": "KinomeScan", "assay_type": "binding", "conditions": "1uM"}, "DCAMKL3": {"molecular_target": "T26, DCAMKL3 (Homo sapiens, UniProt Q9C098)", "T26 construct": "purchased DiscoveRx KINOMEscan", "assay": "KinomeScan", "assay_type": "binding", "conditions": "1uM"}, "PI3Kγ": {"molecular_target": "PI3Kγ (Homo sapiens, UniProt P48736)", "assay": "biochemical", "description": "as §1"}, "ACVR1": {"molecular_target": "T27, ACVR1 (Homo sapiens, UniProt Q04771)", "T27 construct": "purchased DiscoveRx KINOMEscan", "assay": "KinomeScan", "assay_type": "binding", "conditions": "1uM"}, "CDK4-cyclinD1": {"molecular_target": "T28, CDK4-cyclinD1 (Homo sapiens, UniProt P11802)", "T28 construct": "purchased DiscoveRx KINOMEscan", "assay": "KinomeScan", "assay_type": "binding", "conditions": "1uM"}, "ASK2": {"molecular_target": "T29, ASK2 (Homo sapiens, UniProt O95382)", "T29 construct": "purchased DiscoveRx KINOMEscan", "assay": "KinomeScan", "assay_type": "binding", "conditions": "1uM"}, "DYRK1B": {"molecular_target": "T30, DYRK1B (Homo sapiens, UniProt Q9Y463)", "T30 construct": "purchased DiscoveRx KINOMEscan", "assay": "KinomeScan", "assay_type": "binding", "conditions": "1uM"}, "TRKC": {"molecular_target": "T31, TRKC (Homo sapiens, UniProt Q16288)", "T31 construct": "purchased DiscoveRx KINOMEscan", "assay": "KinomeScan", "assay_type": "binding", "conditions": "1uM"}, "SGK": {"molecular_target": "T32, SGK (Homo sapiens, UniProt O00141)", "T32 construct": "purchased DiscoveRx KINOMEscan", "assay": "KinomeScan", "assay_type": "binding", "conditions": "1uM"}, "TAOK2": {"molecular_target": "T33, TAOK2 (Homo sapiens, UniProt Q9UL54)", "T33 construct": "purchased DiscoveRx KINOMEscan", "T33 sequence (Q9UL54 whole entry)": "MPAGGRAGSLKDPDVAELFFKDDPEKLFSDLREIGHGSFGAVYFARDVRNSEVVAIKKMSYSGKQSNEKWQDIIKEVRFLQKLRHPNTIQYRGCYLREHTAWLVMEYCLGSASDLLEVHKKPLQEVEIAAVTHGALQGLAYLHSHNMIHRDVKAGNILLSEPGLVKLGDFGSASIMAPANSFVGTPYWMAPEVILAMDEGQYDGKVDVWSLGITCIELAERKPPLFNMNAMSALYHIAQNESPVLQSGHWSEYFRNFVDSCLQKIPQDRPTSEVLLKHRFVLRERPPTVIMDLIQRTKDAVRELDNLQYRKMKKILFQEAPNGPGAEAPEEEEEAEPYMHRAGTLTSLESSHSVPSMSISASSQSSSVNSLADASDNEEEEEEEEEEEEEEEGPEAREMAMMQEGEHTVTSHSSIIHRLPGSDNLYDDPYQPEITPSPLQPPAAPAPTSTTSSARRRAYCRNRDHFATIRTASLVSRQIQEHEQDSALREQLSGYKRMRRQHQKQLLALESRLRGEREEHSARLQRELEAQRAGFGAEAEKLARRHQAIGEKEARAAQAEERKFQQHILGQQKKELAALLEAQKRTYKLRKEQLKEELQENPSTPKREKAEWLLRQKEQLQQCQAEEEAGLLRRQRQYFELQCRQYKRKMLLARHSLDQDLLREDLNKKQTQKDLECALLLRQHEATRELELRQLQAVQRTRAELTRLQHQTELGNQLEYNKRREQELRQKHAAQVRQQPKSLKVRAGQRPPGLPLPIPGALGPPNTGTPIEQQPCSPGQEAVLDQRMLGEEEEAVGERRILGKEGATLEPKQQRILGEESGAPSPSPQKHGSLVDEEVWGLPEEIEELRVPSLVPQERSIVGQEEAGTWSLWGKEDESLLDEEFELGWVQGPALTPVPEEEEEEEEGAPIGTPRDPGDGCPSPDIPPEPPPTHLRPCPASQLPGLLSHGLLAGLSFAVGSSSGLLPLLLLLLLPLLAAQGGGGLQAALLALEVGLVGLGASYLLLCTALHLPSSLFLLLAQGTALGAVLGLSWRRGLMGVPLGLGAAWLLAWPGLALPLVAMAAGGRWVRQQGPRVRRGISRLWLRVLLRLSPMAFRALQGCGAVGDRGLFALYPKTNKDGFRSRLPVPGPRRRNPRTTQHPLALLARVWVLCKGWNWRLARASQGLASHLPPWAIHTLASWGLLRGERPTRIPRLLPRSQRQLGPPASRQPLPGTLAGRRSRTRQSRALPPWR", "assay": "KinomeScan", "assay_type": "binding", "conditions": "1uM"}}, "data": [{"smiles": "Cc1nc(NC(=O)[C@@H](N)C(C)C)sc1-c1cnc(Cl)c(NS(=O)(=O)c2ccccc2)c1", "note": "[PI3KD-IN-015]", "values": [{"measurement": "KinomeScan DMPK2", "setting": "DMPK2", "result": 100}, {"measurement": "KinomeScan IKK-beta", "setting": "IKK-beta", "result": 100}, {"measurement": "KinomeScan RSK1(Kin.Dom.1-N-terminal)", "setting": "[1]", "result": 74}, {"measurement": "EC50", "setting": "PI3Kβ", "result": "> 3000", "unit": "nM"}, {"measurement": "S6K phosphorylation", "setting": "S6K phosphorylation", "result": "significantly decreased"}, {"measurement": "KinomeScan ROCK1", "setting": "ROCK1", "result": 100}, {"measurement": "KinomeScan JNK2", "setting": "JNK2", "result": 100}, {"measurement": "KinomeScan ACVR1B", "setting": "ACVR1B", "result": 85}, {"measurement": "IC50", "setting": "PI3Kα", "result": 60, "unit": "nM"}, {"measurement": "GI50", "setting": "CLL patient primary cell; patient primary cell CLL16", "result": 7800, "unit": "nM"}, {"measurement": "GI50", "setting": "CLL patient primary cell; patient primary cell CLL18", "result": "> 10000", "unit": "nM"}, {"measurement": "GI50", "setting": "CLL patient primary cell; patient primary cell CLL19", "result": 1500, "unit": "nM"}, {"measurement": "KinomeScan ITK", "setting": "ITK", "result": 100}, {"measurement": "KinomeScan DDR2", "setting": "DDR2", "result": 96}, {"measurement": "KinomeScan DAPK2", "setting": "DAPK2", "result": 97}, {"measurement": "KinomeScan CDKL2", "setting": "CDKL2", "result": 100}, {"measurement": "KinomeScan GRK4", "setting": "GRK4", "result": 92}, {"measurement": "KinomeScan MST2", "setting": "MST2", "result": 87}, {"measurement": "KinomeScan WEE2", "setting": "WEE2", "result": 100}, {"measurement": "KinomeScan PRKG1", "setting": "PRKG1", "result": 89}, {"measurement": "KinomeScan MAST1", "setting": "MAST1", "result": 100}, {"measurement": "KinomeScan FGFR1", "setting": "FGFR1", "result": 100}, {"measurement": "KinomeScan MARK4", "setting": "MARK4", "result": 100}, {"measurement": "KinomeScan WNK3", "setting": "WNK3", "result": 100}, {"measurement": "KinomeScan LRRK2", "setting": "LRRK2", "result": 100}, {"measurement": "KinomeScan PCTK2", "setting": "PCTK2", "result": 100}, {"measurement": "KinomeScan PRKX", "setting": "PRKX", "result": 95}, {"measurement": "KinomeScan TGFBR1", "setting": "TGFBR1", "result": 97}, {"measurement": "KinomeScan ULK2", "setting": "ULK2", "result": 79}, {"measurement": "KinomeScan BIKE", "setting": "BIKE", "result": 73}, {"measurement": "KinomeScan DCAMKL3", "setting": "DCAMKL3", "result": 100}, {"measurement": "IC50", "setting": "PI3Kγ", "result": 125, "unit": "nM"}, {"measurement": "KinomeScan ACVR1", "setting": "ACVR1", "result": 100}, {"measurement": "KinomeScan CDK4-cyclinD1", "setting": "CDK4-cyclinD1", "result": 90}, {"measurement": "KinomeScan ASK2", "setting": "ASK2", "result": 84}, {"measurement": "KinomeScan DYRK1B", "setting": "DYRK1B", "result": 100}, {"measurement": "KinomeScan TRKC", "setting": "TRKC", "result": 100}, {"measurement": "KinomeScan SGK", "setting": "SGK", "result": 70}, {"measurement": "KinomeScan TAOK2", "setting": "TAOK2", "result": 96}]}]}
